The test system of one experiment is T-cell. In words: In vitro evaluation for immunosuppressive activity against proliferation of antigen stimulated murine splenic T cells. The following applies: Mus musculus. In kind it is functional, cell-based.
Experiment [1] has as its target Peptidyl-prolyl cis-trans isomerase FKBP1A (Homo sapiens, UniProt P62942). In words: Ability to bind the major cystolic receptor FK506 binding protein 12 by using competitive binding assay.

Sequence of Peptidyl-prolyl cis-trans isomerase FKBP1A (P62942 whole entry): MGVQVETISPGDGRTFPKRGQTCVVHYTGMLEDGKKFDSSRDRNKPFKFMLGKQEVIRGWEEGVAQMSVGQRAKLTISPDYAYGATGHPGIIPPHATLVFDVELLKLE

What is called IC50 is the concentration needed to halve the response being measured. A low value points to greater potency. As to `CC[C@@H]1/C=C(\C)C[C@H](C)C[C@H](OC)[C@H]2O[C@@](O)(C(=O)C(=O)N3CCCC[C@H]3C(=O)O[C@H](/C(C)=C/[C@@H]3CC[C@@H](OC(C)c4ccccc4)[C@H](OC)C3)[C@H](C)[C@@H](O)CC1=O)[C@H](C)C[C@@H]2OC` (stereo not given in full), 11.3 nM corresponded to half-maximal inhibition in the experiment with T-cell (IC50).
Turning to `CC[C@@H]1/C=C(\C)C[C@H](C)C[C@H](OC)[C@H]2O[C@@](O)(C(=O)C(=O)N3CCCC[C@H]3C(=O)O[C@H](/C(C)=C/[C@@H]3CC[C@@H](OCC#Cc4ccccc4)[C@H](OC)C3)[C@H](C)[C@@H](O)CC1=O)[C@H](C)C[C@@H]2OC`, the concentration for half-maximal inhibition (IC50) in the experiment on T-cell amounted to 2.7 nM.
In the case of `CC[C@@H]1/C=C(\C)C[C@H](C)C[C@H](OC)[C@H]2O[C@@](O)(C(=O)C(=O)N3CCCC[C@H]3C(=O)O[C@H](/C(C)=C/[C@@H]3CC[C@@H](OC/C=C/c4cc(F)cc(F)c4)[C@H](OC)C3)[C@H](C)[C@@H](O)CC1=O)[C@H](C)C[C@@H]2OC`, inhibition in the experiment with T-cell was half-maximal at 3.9 nM (IC50).
On the same count and under the same terms, under `CC[C@@H]1/C=C(\C)C[C@H](C)C[C@H](OC)[C@H]2O[C@@](O)(C(=O)C(=O)N3CCCC[C@H]3C(=O)O[C@H](/C(C)=C/[C@@H]3CC[C@@H](OC/C=C/c4ccc(OC)cc4)[C@H](OC)C3)[C@H](C)[C@@H](O)CC1=O)[C@H](C)C[C@@H]2OC` stands 3.8 nM.
Usually EC50 stands for the concentration giving half of the maximal effect. A higher EC50 goes with a need for much substance. Consider `CC[C@@H]1/C=C(\C)C[C@H](C)C[C@H](OC)[C@H]2O[C@@](O)(C(=O)C(=O)N3CCCC[C@H]3C(=O)O[C@H](/C(C)=C/[C@@H]3CC[C@@H](OC/C=C/c4cccc([N+](=O)[O-])c4)[C@H](OC)C3)[C@H](C)[C@@H](O)CC1=O)[C@H](C)C[C@@H]2OC`, for which the concentration giving a half-maximal response (EC50) in experiment [1] worked out at 34.3 nM. This compound also came in with a half-inhibitory concentration (IC50) with T-cell of 1.9 nM.
Consider `CC[C@@H]1/C=C(\C)C[C@H](C)C[C@H](OC)[C@H]2O[C@@](O)(C(=O)C(=O)N3CCCC[C@H]3C(=O)O[C@H](/C(C)=C/[C@@H]3CC[C@@H](OC/C=C/c4ccc(Br)cc4)[C@H](OC)C3)[C@H](C)[C@@H](O)CC1=O)[C@H](C)C[C@@H]2OC`, for which the EC50 in experiment [1] worked out at 23 nM. The compound further gave a half-maximal inhibitory concentration (IC50) with T-cell of 14.5 nM.
For `CC[C@@H]1/C=C(\C)C[C@H](C)C[C@H](OC)[C@H]2O[C@@](O)(C(=O)C(=O)N3CCCC[C@H]3C(=O)O[C@H](/C(C)=C/[C@@H]3CC[C@@H](OC/C=C/c4cccc(F)c4)[C@H](OC)C3)[C@H](C)[C@@H](O)CC1=O)[C@H](C)C[C@@H]2OC`, in the experiment on T-cell, the IC50 turned out to be 2.5 nM.
The compound `CC[C@@H]1/C=C(\C)C[C@H](C)C[C@H](OC)[C@H]2O[C@@](O)(C(=O)C(=O)N3CCCC[C@H]3C(=O)O[C@H](/C(C)=C/[C@@H]3CC[C@@H](OC/C=C/C4CCCCC4)[C@H](OC)C3)[C@H](C)[C@@H](O)CC1=O)[C@H](C)C[C@@H]2OC` gave an IC50 in the experiment on T-cell of 5.5 nM.
As to `CC#CCO[C@@H]1CC[C@@H](/C=C(\C)[C@H]2OC(=O)[C@@H]3CCCCN3C(=O)C(=O)[C@]3(O)O[C@H]([C@@H](OC)C[C@@H](C)C/C(C)=C/[C@@H](CC)C(=O)C[C@H](O)[C@H]2C)[C@@H](OC)C[C@H]3C)C[C@H]1OC`, the IC50 in the experiment on T-cell was 6.1 nM.
For the compound `CC[C@@H]1/C=C(\C)C[C@H](C)C[C@H](OC)[C@H]2O[C@@](O)(C(=O)C(=O)N3CCCC[C@H]3C(=O)O[C@H](/C(C)=C/[C@@H]3CC[C@@H](O)[C@H](OC)C3)[C@H](C)[C@@H](O)CC1=O)[C@H](C)C[C@@H]2OC` [ASCOMYCIN], the EC50 in experiment [1] was 1.6 nM.
`CC[C@@H]1/C=C(\C)C[C@H](C)C[C@H](OC)[C@H]2O[C@@](O)(C(=O)C(=O)N3CCCC[C@H]3C(=O)O[C@H](/C(C)=C/[C@@H]3CC[C@@H](OC/C=C/C(C)(C)C)[C@H](OC)C3)[C@H](C)[C@@H](O)CC1=O)[C@H](C)C[C@@H]2OC` displayed a concentration for half-maximal inhibition (IC50) in the experiment on T-cell of 14.2 nM.
Same read-out and setting: the value for `CC[C@@H]1/C=C(\C)C[C@H](C)C[C@H](OC)[C@H]2O[C@@](O)(C(=O)C(=O)N3CCCC[C@H]3C(=O)O[C@H](/C(C)=C/[C@@H]3CC[C@@H](OC(C)C)[C@H](OC)C3)[C@H](C)[C@@H](O)CC1=O)[C@H](C)C[C@@H]2OC` was 12.5 nM; that for `CC[C@@H]1/C=C(\C)C[C@H](C)C[C@H](OC)[C@H]2O[C@@](O)(C(=O)C(=O)N3CCCC[C@H]3C(=O)O[C@H](/C(C)=C/[C@@H]3CC[C@@H](OCc4cccs4)[C@H](OC)C3)[C@H](C)[C@@H](O)CC1=O)[C@H](C)C[C@@H]2OC` was 7.1 nM; that for `C=CC[C@@H]1/C=C(\C)C[C@H](C)C[C@H](OC)[C@H]2O[C@@](O)(C(=O)C(=O)N3CCCC[C@H]3C(=O)O[C@H](/C(C)=C/[C@@H]3CC[C@@H](O)[C@H](OC)C3)[C@H](C)[C@@H](O)CC1=O)[C@H](C)C[C@@H]2OC` [TACROLIMUS ANHYDROUS] was 0.29 nM.
In the experiment on T-cell, `C/C=C(C)/C=C/CO[C@@H]1CC[C@@H](/C=C(\C)[C@H]2OC(=O)[C@@H]3CCCCN3C(=O)C(=O)[C@]3(O)O[C@H]([C@@H](OC)C[C@@H](C)C/C(C)=C/[C@@H](CC)C(=O)C[C@H](O)[C@H]2C)[C@@H](OC)C[C@H]3C)C[C@H]1OC` displayed a half-maximal inhibitory concentration (IC50) of 6.9 nM.
In turn, `CC[C@@H]1/C=C(\C)C[C@H](C)C[C@H](OC)[C@H]2O[C@@](O)(C(=O)C(=O)N3CCCC[C@H]3C(=O)O[C@H](/C(C)=C/[C@@H]3CC[C@@H](OC/C=C/c4ccc(Cl)cc4)[C@H](OC)C3)[C@H](C)[C@@H](O)CC1=O)[C@H](C)C[C@@H]2OC` had an IC50 with T-cell of 15.8 nM.
In the experiment with T-cell, `CC[C@@H]1/C=C(\C)C[C@H](C)C[C@H](OC)[C@H]2O[C@@](O)(C(=O)C(=O)N3CCCC[C@H]3C(=O)O[C@H](/C(C)=C/[C@@H]3CC[C@@H](OC/C=C/c4cccc(O)c4)[C@H](OC)C3)[C@H](C)[C@@H](O)CC1=O)[C@H](C)C[C@@H]2OC` displayed a 50% inhibitory concentration (IC50) of 0.8 nM.
On the same count and under the same terms, the value for `CC[C@@H]1/C=C(\C)C[C@H](C)C[C@H](OC)[C@H]2O[C@@](O)(C(=O)C(=O)N3CCCC[C@H]3C(=O)O[C@H](/C(C)=C/[C@@H]3CC[C@@H](OC/C(C)=C/c4ccccc4)[C@H](OC)C3)[C@H](C)[C@@H](O)CC1=O)[C@H](C)C[C@@H]2OC` was 5.5 nM; that for `CC[C@@H]1/C=C(\C)C[C@H](C)C[C@H](OC)[C@H]2O[C@@](O)(C(=O)C(=O)N3CCCC[C@H]3C(=O)O[C@H](/C(C)=C/[C@@H]3CC[C@@H](OC/C=C/c4ccc(F)cc4)[C@H](OC)C3)[C@H](C)[C@@H](O)CC1=O)[C@H](C)C[C@@H]2OC` was 5.5 nM.
Regarding `CC[C@@H]1/C=C(\C)C[C@H](C)C[C@H](OC)[C@H]2O[C@@](O)(C(=O)C(=O)N3CCCC[C@H]3C(=O)O[C@H](/C(C)=C/[C@@H]3CC[C@@H](OC/C=C/c4ccc(O)cc4)[C@H](OC)C3)[C@H](C)[C@@H](O)CC1=O)[C@H](C)C[C@@H]2OC`, in experiment [1], the 50% effective concentration (EC50) was 20.5 nM.
For `CC[C@@H]1/C=C(\C)C[C@H](C)C[C@H](OC)[C@H]2O[C@@](O)(C(=O)C(=O)N3CCCC[C@H]3C(=O)O[C@H](/C(C)=C/[C@@H]3CC[C@@H](OCCCc4ccccc4)[C@H](OC)C3)[C@H](C)[C@@H](O)CC1=O)[C@H](C)C[C@@H]2OC`, in the experiment with T-cell, inhibition was half-maximal at 3.5 nM (IC50).
The compound `CC[C@@H]1/C=C(\C)C[C@H](C)C[C@H](OC)[C@H]2O[C@@](O)(C(=O)C(=O)N3CCCC[C@H]3C(=O)O[C@H](/C(C)=C/[C@@H]3CC[C@@H](OCc4ccccc4)[C@H](OC)C3)[C@H](C)[C@@H](O)CC1=O)[C@H](C)C[C@@H]2OC` displayed a half-maximal inhibitory concentration (IC50) in the experiment with T-cell of 3 nM.
In the experiment on T-cell, `CC[C@@H]1/C=C(\C)C[C@H](C)C[C@H](OC)[C@H]2O[C@@](O)(C(=O)C(=O)N3CCCC[C@H]3C(=O)O[C@H](/C(C)=C/[C@@H]3CC[C@@H](OCc4ccco4)[C@H](OC)C3)[C@H](C)[C@@H](O)CC1=O)[C@H](C)C[C@@H]2OC` showed a concentration for half-maximal inhibition (IC50) of 13.9 nM.
